Data taken from US7316996B2, “Bisacyloxypropylcysteine conjugates and the use thereof” (GBF Gesellschaft fur Biotechnologische Forschung mbH, priority 2002, dated 2008).
Entries after “also recorded” stand apart in the source; their conditions may differ.

What was measured:
β-gal-specific IgA = β-gal-specific IgA in lung and vaginal washings of intranasally immunized mice; type: in vivo, BALB/c (H-2d) mice; conditions: intranasal immunization with β-gal plus adjuvant
Procedure: (§1) 6-8-week-old female BALB/c (H-2d) mice (Harlan Winkelmann GmbH, Borchen, Germany) were used for the experiments. Groups of in each case 5 mice were administered 50 μg of β-galactosidase (β-gal) (Boehringer, Mannheim, Germany), either on its own or together with 0.5 μg of synthetic R-MALP-2, S-MALP-2 or BPP-Cys-PEG, as adjuvant, by the nasal route (25 μl) on days 1, 14 and 21. Serum samples were withdrawn on day 31 and stored at −20° C. until the β-gal-specific antibodies were determined. Nunc-Immuno MaxiSorp test plates containing 96 wells (Nunc, Roskilde, Denmark) were coated with 100 μl of β-gal (Boehringer, Mannheim, Germany), containing 5 μg/ml in 0.05 mol carbonate buffer (pH 8.2), per well. Serial double dilutions of the sera or washings in PBS containing 1% BSA and 0.05% Tween 20 were added (100 μl/well) and the plates were incubated at 37° C. for 2 hours. […]
Vaginal and lung washings were obtained by rinsing the organs with […] PBS which contained 50 mM EDTA, 0.1% BSA and 10 mM PMSF. […] In order to investigate the capacity of R-MALP-2, S-MALP-2 and BPP-Cys-PEG for stimulating effective humoral immune responses, the serum titers of β-gal-specific antibodies were determined in the inoculated mice.

[1] = tested on: β-galactosidase-specific antibodies; test: Serum β-gal-specific IgG (ELISA) after intranasal immunization with β-gal plus adjuvant; type: in vivo, BALB/c (H-2d) mice
Procedure: FIG. 3: Humoral responses which are stimulated after inoculating with MALP-2 derivatives and BPP-Cys-PEG, as mucosal adjuvants, at a dose of 0.05 μg per animal per immunization. The mice were immunized intranasally, on days 0, 7 and 14, with β-galactosidase (50 μg/dose) mixed with the above derivatives. On day 31 after the first immunization, serum samples were withdrawn and the concentrations of the β-galactosidase-specific antibodies were determined by means of ELISA. The results are depicted as end point titers.
as §1

[2] = tested on: mouse peritoneal macrophages; test: Nitrogen monoxide release assay (macrophage activation test); type: cell-based, C3H/HeJ mice; conditions: FIG. 1
From the text: In principle, the activation of macrophages and monocytes can be measured by a large number of parameters, for example by means of the release of cytokines, chemokines or arachidonic acid metabolites in cultures of human monocytes or murine peritoneal macrophages. The test which is used here is based on the simultaneous stimulation of mouse peritoneal macrophages with interferon-γ and macrophage activator, e.g. BAP-Cys-PEG, so as to release nitrogen monoxide. (Reference: Muhlradt, P. F., and Frisch, M., 1994, “Purification and partial biochemical characterization of a Mycoplasma fermentans-derived substance that activates macrophages to release nitric oxide, tumor necrosis factor, and interleukin-6”, Infect. Immun. 62:3801-3807).
In brief, peritoneal macrophages from C3H/HeJ mice were used as the macrophage source. They were cultured in 96-well microtiter plates and stimulated simultaneously with rIFN-γ and a serial dilution of macrophage activator. Insofar as necessary, the macrophage activators were dissolved in 25 mM octylglucoside in the first dilution step and then diluted further with medium. After an incubating time of 45-48 hours, the nitrate was reduced with nitrate reductase and the starting substance nitrogen monoxide was determined, as the sum of nitrate and nitrite, using Griess' reagent. […]

spleen cells = test: β-gal-specific T cell proliferation of spleen cells from immunized mice ([3H]-thymidine uptake); type: in vivo, BALB/c (H-2d) mice; conditions: spleen cells re-stimulated in vitro for 4 days with soluble β-gal; FIG. 6
From the text: FIG. 6: β-gal-specific T cell proliferation responses of spleen cells from immunized mice. The cells were re-stimulated in vitro over 4 days with different concentrations of soluble β-gal. The results are depicted as ratios between the values (means of triple determinations) from stimulated and unstimulated samples (stimulation index).
The spleens were removed and taken together for analyzing the cell immune responses. The cells were propagated in RPMI 1640, additionally containing 10% calf serum, 100 U of penicillin/ml, 15 μg of streptomycin/ml, 5×10^−5 M 2-mercaptoethanol and 1 mM L-glutamine (GIBCO BRL, Karlsruhe, Germany), and stored at 37° C. in a moist atmosphere containing 5% CO2. […] These cells were then harvested on filter paper (Filtermat A; Wallac, Freiburg, Germany) using a cell harvester (Inotech, Wohlen, Switzerland) and the quantity of [^3H] thymidine taken up into the DNA of proliferating cells was determined using a scintillation counter (Wallac 1450, Micro-Trilux). The results were recorded as the ratios between the values (mean values, determined in triplicate) of stimulated and unstimulated samples (stimulation index).

[3] = tested on: diabetic mice (C57BKLS/Bom-db); test: Wound healing in diabetic mice; type: in vivo; conditions: 3×200 kU per animal on days 0, 2 and 5, in methylcellulose and 5% mouse serum; versus carrier control; FIG. 2
From the text: As in the case of diabetic patients, wound healing is also disturbed in diabetic mice and proceeds more slowly than in wild-type mice. The diabetic mouse is therefore an established animal model for wound healing.
An area of approx. 4×4 cm in size was shaved on the backs of 20 diabetic mice ([…] C57BKLS/Bom-db) and this area was depilated with Veet two days later, after which the cream was carefully removed. After a further two days, the depilated backs of the mice were disinfected with Braunol. After anaesthesia had been initiated with isoflurane/air, an additional local anaesthesia was performed by means of the i.c. injection of 2% xylocaine directly into the site envisaged for the excision, and the skin was defatted with trichloroethylene. After that, scissors were used to cut out a circular skin wound of 1.3 cm in diameter in each of the mice. The wounds were closed with a transparent plaster (Hydrofilm, F. Hartmann) and dressing adhesive. An additional, larger plaster, having an aperture corresponding to the wound, making possible continued observation of the wound, was adhered on top of the first plaster.
3×200 kUnits of BPP-Cys-PEG, in methylcellulose and 5% mouse serum (as carrier), were administered, per animal, through the transparent plaster on days 0, 2 and 5.
Control mice were only given the carrier mixture. […]

In the case of “bispalmitoyloxy-propylcysteine-PEG [BPP-Cys-PEG]”, the “β-gal-specific IgA in lung washings” value (β-gal-specific IgA; FIG. 4) is reported as “significant increase in antigen-specific IgA antibodies”, the “β-gal-specific IgA in vaginal washings” value (β-gal-specific IgA; FIG. 5) is reported as “significant concentrations of β-gal-specific IgA” and the “antigen-specific (β-gal) serum IgG titers” value ([1]; intranasal, 50 μg β-gal with 0.5 μg adjuvant, serum on day 31, FIG. 3) is reported as “rise more rapidly than those obtained using R-MALP-2”. The “effectiveness as a mucosal adjuvant compared with R-MALP-2 (overall conclusion)” value ([1]; summary of humoral and cellular responses, systemic and mucosal) was “at least as effective as, or even more effective than, R-MALP-2”, the “concentration achieving the same degree of macrophage activation, relative to TPP-Cys-PEG” value ([2]; comparison with TPP-Cys-PEG (PAM3-Cys-PEG)) was “approx. forty times lower” and the “potential for activating macrophages (nitrogen monoxide production), compared with PAM3-Cys-PEG” value ([2]; peritoneal macrophages co-stimulated with rIFN-γ, 45-48 hours) was “markedly higher potential for activating macrophages”. For the same substance, the “β-gal-specific T cell proliferation response (stimulation index)” value (spleen cells) was “effective proliferation response; also recorded: strongest T cell proliferation response” and the wound healing [3] was “accelerated the wound healing significantly”.
